This test relates to Bleomycin-induced Lung Injury Model Animal. Description: Bleomycin-induced lung injury model, lung tissue hydroxyproline content. It counts as in vivo, ICR male mice. Here is the method: Production of Bleomycin-induced Lung Injury Model Animal:
Using each of ICR male mice and under pentobarbital (60 mg/kg, i.v.) anesthesia, the cervical region was shaved and the skin was incised for about 4 mm from under the larynx region along the median line. Next, the muscle layer covering upper trachea was peeled off to expose the trachea. Using a micro-syringe, physiological saline or bleomycin hydrochloride (0.03 mg/animal, manufactured by Nippon Kayaku) was administered tracheally (50 μl/animal) from the tracheal smooth muscle region between cricoid cartilage. After the administration, the incised region was closed and antibiotics were administered into the thigh intramuscularly in order to prevent infection. S1P (10 mg/5 ml/kg, 0.5% aqueous solution of carboxymethylcellulose sodium (CMC.Na)-physiological saline, manufactured by Matreya) was intraperitoneally administered once a day for 14 days after the bleomycin induction. […]
The hydrolyzed supernatant (25 μl) was mixed with borate-alanine buffer (2.475 ml) separately prepared, and potassium chloride (solid) was added thereto until it was saturated. […] The absorbance of each sample was immediately measured at 560 nm, and the amount of hydroxyproline in the sample was calculated from a calibration curve.
The inhibition ratio was calculated by the following equation. […]

`CCCCCCCCCCCCC/C=C/[C@H](O)[C@H](N)COP(=O)(O)O` (stereo in doubt) [S1P, sphingosine 1-phosphate]: the “Inhibition ratio: suppression of bleomycin-induced increase of hydroxyproline content” value ([{(C−B)−(S−B)}÷(C−B)]×100, S1P 10 mg/kg i.p. once a day for 14 days, ICR male mice) is listed as “ca. 90%”. Where the note is “bleomycin-induced (0.03 mg/animal, tracheal) ICR male mice, S1P 10 mg/5 ml/kg i.p. once a day for 14 days, lung excised fifteen days after induction”, this compound returned a Hydroxyproline content of 227.8 ± 17.5 μg/lung.

(Values after patent US7151093B2, “Use of sphingosine 1-phosphate as active ingredient for the treatment of pulmonary fibrosis” (Ono Pharmaceutical Co., Ltd., priority 1999, dated 2006).)
